Experimental data published in patent US20240373851A1, “PEST CONTROL COMPOSITION AND PEST CONTROL METHOD” (SUMITOMO CHEMICAL COMPANY, LIMITED, priority 2021, published 2024).

Key:
Format in all cases: in vivo
[1] = tested on: German cockroaches (Blattella germanica); experiment: Test Example 7: control test against German cockroaches, spray in chamber; details: adult German cockroaches; 1.5 mL sprayed; concentration [%]: isocycloseram 0.05, imiprothrin 0.01, cypermethrin 0.01, alone or mixed; 120 minutes after spraying
Experimental: (§1) Next, the usefulness of the inventive composition for controlling pests will be indicated by Test Examples. In general, the control effect to be expected when treated with a mixture obtained by mixing given two or three types of active ingredient compounds is determined by the Colby's calculation equation represented by the following [Equation 1] and [Equation 2].
(§2) [formula] • P: moribund and mortal rates (%) when treated with an active ingredient compound X in the concentration of m [ppm] • Q: moribund and mortal rates (%) when treated with an active ingredient compound Y in the concentration of n [ppm] • EA: moribund and mortal rates (%) when treated with an active ingredient compound X in the concentration of m [ppm] and an active ingredient compound Y in the concentration of n [ppm] (hereinafter referred to as expected value A) […]
(§3) Regarding the synergistic effect of three types of the active ingredient compounds, in case where the moribund and mortal rates (%) when actually treated with a mixture obtained by mixing three types of the active ingredient compounds exceed the expected value A calculated by using the moribund and mortal rates (%) when actually treated with a mixture obtained by mixing two types of the active ingredient compounds among three types thereof, and the moribund and mortal rates (%) calculated when actually treated the remaining one type of the active ingredient compound, or the expected value B (%) calculated from the moribund and mortal rates (%) when actually treated with each of three types of the active ingredient compounds alone, it was determined that the synergistic effect exists. […]

[2] = tested on: German cockroaches (Blattella germanica); experiment: Test Example 2: control test against German cockroaches, spray in chamber; details: adult German cockroaches; 1.5 mL sprayed; concentration [%]: nicofluprole 0.01, imiprothrin 0.01, cypermethrin 0.01, alone or mixed; 120 minutes after spraying
Experimental: as §1, §2, §3

[3] = tested on: German cockroaches (Blattella germanica); experiment: Test Example 10: control test against German cockroaches, spray in chamber; details: adult German cockroaches; 1.5 mL sprayed; concentration [%]: nicofluprole 0.01, imiprothrin 0.01, permethrin 0.05, alone or mixed; 60 minutes after spraying
Experimental: as §1, §2, §3

[4] = tested on: German cockroaches (Blattella germanica); experiment: Test Example 9: control test against German cockroaches, spray in chamber; details: adult German cockroaches; 1.5 mL sprayed; concentration [%]: broflanilide 0.02, imiprothrin 0.01, permethrin 0.05, alone or mixed; 420 minutes after spraying
Excerpt: Next, the usefulness of the inventive composition for controlling pests will be indicated by Test Examples.
(hereinafter referred to as expected value A)
(hereinafter referred to as expected value B)
In a plastic cup (diameter: 12.4 cm, height: 10.2 cm) lined with a filter paper, ten adult German cockroaches (Blattella germanica) (five males and five females each) were released, and the plastic cup was placed in the center of the bottom of a box-shaped chamber (46 cm×46 cm×70 cm in height). From the height of 60 cm, 1.5 mL of each of formulations prepared by dissolving a single agent of any one of broflanilide, imiprothrin and permethrin, or a mixed agent of two or more thereof in a mixture of isopropyl alcohol and Isopar M at a mixing ratio of 1:9 was sprayed under a spray pressure of 0.041 MPa. After a lapse of 420 minutes from spraying, the number of dead and moribund individuals was examined, and moribund and mortal rates (%) were determined by the above equation 3. The test was performed through two replicates. Dead individuals are completely immobile individuals, and moribund individuals are individuals who cannot get up when turned on their backs.

SMILES: C#CCN1CC(=O)N(COC(=O)[C@@H]2C(C=C(C)C)C2(C)C)C1=O (mixture of isomers) [Imiprothrin, imiprothrin]
- Moribund and mortal rates [%] after 120 minutes [1]: 5%
- Moribund and mortal rates [%] after 120 minutes [2]: 15%
- Moribund and mortal rates [%] after 60 minutes [3]: 40%
- Moribund and mortal rates [%] after 420 minutes [4]: 15%
